Legend:
[1] = tested on: CD-1 mice; test: Maximal Electroshock Procedure; assay type: in vivo; conditions: Mus musculus, po, p.o. 30 minutes prior to electrical stimulation, PROBIT analysis, read-out: ED50 (dose at which 50% of the mice were protected from tonic seizures)
Procedure: (§1) Adult, male, CD-1 mice (22-25 grams) were obtained from Charles River Laboratories (Portage, Mich.) and housed at Abbott Laboratories (Abbott Park) under standard lighting conditions of 12 hours on/12 hours off, with lights on at 6 a.m. Food and water were provided ad libitum and mice weighed 25-35 grams at the time of testing.
(§2) Compounds were prepared for oral administration by suspending them in a vehicle of 100 μL Tween® 80 per mL hydroxypropyl methylcellulose (2 mg/mL, Abbott Laboratories). Compound solutions were administered at a volume of 10 mL/kg, p.o.
The method used was similar to that of E. A. Swinyard, General principles: Experimental selection, quantification and evaluation of anti-convulsants, Anti-epileptic Drugs, Third Edition, R. Levey, et al., Editors. 1989, Raven Press Ltd: New York. Mice were pretreated orally with compounds of the present invention 30 minutes prior to electrical stimulation. Electrical stimulation consisted of pulsed electrical current (50 mA, 0.4 second duration, pulse width 0.5 msec, 60 pulses/sec) applied via corneal electrodes to induce seizure. The stimulation was delivered with an ECT Unit (Ugo Basile #7801). […] The percent protection from tonic seizures was calculated by dividing the number of protected mice by the total number in the group. […]

[2] = tested on: CD-1 mice; test: Subcutaneous Pentylenetetrazole (PTZ) Seizure Procedure; assay type: in vivo; conditions: Mus musculus; PTZ 85 mg/kg s.c., compound p.o. 30 minutes prior to PTZ injection, linear regression; read-out: ED50 (dose at which 50% of the mice were protected from tonic seizures)
Procedure: as §1, §2
The method used was similar to that of E. A. Swinyard, General principles: Experimental selection, quantification and evaluation of anti-convulsants, Anti-epileptic Drugs, Third Edition, R. Levey, et al., Editors. 1989, Raven Press Ltd: New York. During the experiment the mice were housed individually in clear polycarbonate cages for observation. […] Seizures were induced by the subcutaneous injection of pentylenetetrazole (PTZ, 85 mg/kg) just below the nape of the neck. […] A total of 20 mice were used in each group. The ED50for the compounds were calculated using linear regression and represent the dose at which 50% of the mice were protected from tonic seizures.

CCCC(CCC)C(=O)O [Valproate]
ED50 [1]: 1200 µmol/kg | ED50 [2]: 1800 µmol/kg

— patent publication US20040077616A1, “Spirocyclopropyl amides and acids and their therapeutic applications” (priority 2002, published 2004)
